In article PMC8901119 (Chemical Science, 2021):
Where two headings read alike, the source gives them in different places. Values belong to the molecule of their own block, whether it stands above or below them. Starred links: 1 amine or outer side, 2 acyl side, 3 side chain; linkers in the order of their positions; H or OH if unused. Non-standard residues stand in square brackets, D forms with d. Residues, ends and D or L forms follow the SMILES beside them. Ala(7-MeO-coumarin-4-yl) = COc1ccc2c(C[C@H](N)C(=O)O)cc(=O)oc2c1; X1 = C[C@H](NC(=S)[C@H](CCCNC(=N)N)N[*:1])C(=O)[*:2]; X2 = C[C@H](NC(=S)[C@H](CCCCN)N[*:1])C(=O)[*:2]

Columns and labels:
[1] = tested on: cathepsin S (Cts S); conditions: 27 °C, up to 100 min
[2] = tested on: cathepsin V (Cts V); conditions: 27 °C, up to 100 min
[3] = tested on: cathepsin B (Cts B); conditions: human, 27 °C, up to 100 min
[4] = tested on: cathepsin L (Cts L); conditions: human, 27 °C, up to 100 min
[5] = tested on: cathepsin K (Cts K); conditions: 27 °C, up to 100 min
[6] = target: Cts L (Homo sapiens, UniProt P07711); experiment: Cathepsin L inhibition assay with Z-FR-AMC
[7] = tested on: cathepsin L (Cts L); conditions: human, 27 °C, up to 2-hour
[8] = Stability of peptides in HepG2 whole cell lysate; assay type: in vitro ADME; conditions: human
Method: Stability of Peptides in HepG2 Whole Cell Lysate
Using the same conditions as the previous Cts L Activity Assay in HepG2 Whole Cell Lysate, 50 μL peptide (either R1A or RS1A; final concentration 20 μM) was incubated in 50 μL HepG2 whole cell lysate (to a final concentration of 0.05 mg/mL) in the assay buffer for different time points.
The all-amide peptide, R 1A, was incubated for t = 0, 5, 10, 15, 20, and 30 minutes. The thioamide peptide, RS1A, was incubated for t = 0, 2, 6, 8, 10, and 24 hours. After incubation for the desired amount of time, 100 μL methanol was added to the mixture and incubated at -20 °C for 10 minutes before spinning down at 13,000 rpm for 10 minutes. Then, 180 μL of each mixture was further diluted with 220 μL Milli-Q water to a total volume of 400 μL before adding 1 μL 0.42 mM coumarin internal standard for HPLC analysis. The coumarin internal standard was used to normalize the amount of intact peptide in each sample. A Phenomenex Luna® Omega 5 µm PS C18 100 Å analytical column was used to analyze all samples using the same gradient of 20-40 % B over 20 minutes (Solvent A: 0.1% TFA in Milli-Q water; Solvent B: 0.1% TFA in acetonitrile).
Representative HPLC spectra (325 nm) at different time points were also shown to confirm the stability of the peptides in HepG2 whole cell lysate (Figure S26 A & B). MALDI MS was used to confirm the mass from each fraction from the HPLC from experiment with the all-amide peptide (R 1A – expected [M+H]+ = 1133.51 m/z) and the thioamide peptide ( RS1A – expected [M+H]+ = 1149.48 m/z). To calculate the percent intact peptide for each sample, the average ratio of intact peptide to internal standard was compared to that ratio at t = 0. For each time point, the experiment

[9] = Cts L, mixed inhibition model fit, Z-FR-AMC, pH 5.5, 27 °C

Chain of Cts L (P07711 114-333): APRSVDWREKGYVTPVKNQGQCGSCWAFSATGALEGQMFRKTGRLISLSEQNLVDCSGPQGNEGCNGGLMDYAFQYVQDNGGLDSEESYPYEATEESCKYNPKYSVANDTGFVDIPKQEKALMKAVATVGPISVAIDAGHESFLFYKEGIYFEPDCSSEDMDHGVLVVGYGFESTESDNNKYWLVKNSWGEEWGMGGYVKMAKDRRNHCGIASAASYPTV

Molecule: μHLFK^SAAAμ (H-[Ala(7-MeO-coumarin-4-yl)]HLF[X2]AA[Ala(7-MeO-coumarin-4-yl)]-OH; SMILES COc1ccc2c(C[C@H](NC(=O)[C@H](C)NC(=O)[C@H](C)NC(=O)[C@H](C)NC(=S)[C@H](CCCCN)NC(=O)[C@H](Cc3ccccc3)NC(=O)[C@H](CC(C)C)NC(=O)[C@H](Cc3c[nH]cn3)NC(=O)[C@@H](N)Cc3cc(=O)oc4cc(OC)ccc34)C(=O)O)cc(=O)oc2c1)
not cleaved [1]: No cleavage | not cleaved [2]: No cleavage | cleaved bond [3]: A-A | cleaved bond [4]: A-A | not cleaved [5]: No cleavage

Molecule: COc1ccc2c(C[C@H](NC(=O)[C@H](C)NC(=O)[C@H](C)NC(=O)[C@H](C)NC(=S)[C@H](CCCCN)NC(=O)[C@H](CC(C)C)NC(=O)[C@H](CC(C)C)NC(=O)[C@@H](N)Cc3cc(=O)oc4cc(OC)ccc34)C(=O)O)cc(=O)oc2c1 [K^SP1, μLLK^SAAAμ] (H-[Ala(7-MeO-coumarin-4-yl)]LL[X2]AA[Ala(7-MeO-coumarin-4-yl)]-OH; N-terminus and C-terminus assumed)
Ki ([6]; Cts L (preliminary data), phosphate buffer pH 6.0, 27 °C, preliminary): 870 nM

Molecule: μHLFKAAAμ (H-[Ala(7-MeO-coumarin-4-yl)]HLFKAAA[Ala(7-MeO-coumarin-4-yl)]-OH; SMILES COc1ccc2c(C[C@H](NC(=O)[C@H](C)NC(=O)[C@H](C)NC(=O)[C@H](C)NC(=O)[C@H](CCCCN)NC(=O)[C@H](Cc3ccccc3)NC(=O)[C@H](CC(C)C)NC(=O)[C@H](Cc3c[nH]cn3)NC(=O)[C@@H](N)Cc3cc(=O)oc4cc(OC)ccc34)C(=O)O)cc(=O)oc2c1)
cleaved bond [1]: K-A | cleaved bond [3]: K-A

Molecule: HLFR^SA
not cleaved [7]: remained intact after the 2-hour assay

Molecule: μHLFRAAAμ (H-[Ala(7-MeO-coumarin-4-yl)]HLFRAAA[Ala(7-MeO-coumarin-4-yl)]-OH; SMILES COc1ccc2c(C[C@H](NC(=O)[C@H](C)NC(=O)[C@H](C)NC(=O)[C@H](C)NC(=O)[C@H](CCCNC(=N)N)NC(=O)[C@H](Cc3ccccc3)NC(=O)[C@H](CC(C)C)NC(=O)[C@H](Cc3c[nH]cn3)NC(=O)[C@@H](N)Cc3cc(=O)oc4cc(OC)ccc34)C(=O)O)cc(=O)oc2c1)
cleaved bond [1]: R-A | cleaved bond [3]: R-A

Molecule: μHLFR^SAAAμ (H-[Ala(7-MeO-coumarin-4-yl)]HLF[X1]AA[Ala(7-MeO-coumarin-4-yl)]-OH; SMILES COc1ccc2c(C[C@H](NC(=O)[C@H](C)NC(=O)[C@H](C)NC(=O)[C@H](C)NC(=S)[C@H](CCCNC(=N)N)NC(=O)[C@H](Cc3ccccc3)NC(=O)[C@H](CC(C)C)NC(=O)[C@H](Cc3c[nH]cn3)NC(=O)[C@@H](N)Cc3cc(=O)oc4cc(OC)ccc34)C(=O)O)cc(=O)oc2c1)
not cleaved [1]: No cleavage | not cleaved [2]: No cleavage | cleaved bond [3]: A-A | cleaved bond [4]: A-A | not cleaved [5]: No cleavage

Molecule: COc1ccc2c(C[C@H](NC(=O)[C@H](C)NC(=O)[C@H](C)NC(=O)[C@H](C)NC(=O)[C@H](CCCCN)NC(=O)[C@H](Cc3ccccc3)NC(=O)[C@H](CC(C)C)NC(=O)[C@H](Cc3c[nH]cn3)NC(=O)[C@@H](N)Cc3cc(=O)oc4cc(OC)ccc34)C(=O)O)cc(=O)oc2c1 [K3A, μHLFKAAAμ] (H-[Ala(7-MeO-coumarin-4-yl)]HLFKAAA[Ala(7-MeO-coumarin-4-yl)]-OH)
Ki [6, 9]: 3050 ± 640 nM

Molecule: COc1ccc2c(C[C@H](NC(=O)[C@H](C)NC(=O)[C@H](C)NC(=O)[C@H](C)NC(=S)[C@H](CCCCN)NC(=O)[C@H](Cc3ccccc3)NC(=O)[C@H](CC(C)C)NC(=O)[C@H](Cc3c[nH]cn3)NC(=O)[C@@H](N)Cc3cc(=O)oc4cc(OC)ccc34)C(=O)O)cc(=O)oc2c1 [K^S3A, μHLFK^SAAAμ] (H-[Ala(7-MeO-coumarin-4-yl)]HLF[X2]AA[Ala(7-MeO-coumarin-4-yl)]-OH)
Ki [6, 9]: 600 ± 150 nM

The remaining lines, values ahead:

Ki [6, 9]: 520 ± 120 nM
Molecule: COc1ccc2c(C[C@H](NC(=O)[C@H](C)NC(=O)[C@H](C)NC(=O)[C@H](C)NC(=S)[C@H](CCCNC(=N)N)NC(=O)[C@H](Cc3ccccc3)NC(=O)[C@H](CC(C)C)NC(=O)[C@H](Cc3c[nH]cn3)NC(=O)[C@@H](N)Cc3cc(=O)oc4cc(OC)ccc34)C(=O)O)cc(=O)oc2c1 [R^S3A, μHLFR^SAAAμ] (H-[Ala(7-MeO-coumarin-4-yl)]HLF[X1]AA[Ala(7-MeO-coumarin-4-yl)]-OH)

Ki [6, 9]: 1680 ± 490 nM
Molecule: COc1ccc2c(C[C@H](NC(=O)[C@H](C)NC(=O)[C@H](C)NC(=O)[C@H](C)NC(=O)[C@H](CCCNC(=N)N)NC(=O)[C@H](Cc3ccccc3)NC(=O)[C@H](CC(C)C)NC(=O)[C@H](Cc3c[nH]cn3)NC(=O)[C@@H](N)Cc3cc(=O)oc4cc(OC)ccc34)C(=O)O)cc(=O)oc2c1 [R3A, μHLFRAAAμ] (H-[Ala(7-MeO-coumarin-4-yl)]HLFRAAA[Ala(7-MeO-coumarin-4-yl)]-OH)

not cleaved [1]: No cleavage | not cleaved [2]: No cleavage | not cleaved [3]: No cleavage | not cleaved [4]: No cleavage | not cleaved [5]: No cleavage
Molecule: μHLFR^SAμ

half-life at 20 μM ([8]; 20 μM peptide, 0.05 mg/mL lysate, HPLC): 7.2 min | remaining at 5 min, 20 μM ([8]; HepG2 lysate, 5 mins, read-out: % intact peptide): 46% | remaining at 10 min, 20 μM ([8]; HepG2 lysate, 10 mins, read-out: % intact peptide): 36% | remaining at 0.25 h, 20 μM ([8]; HepG2 lysate, 15 mins, read-out: % intact peptide): 32.8% | remaining at 20 min, 20 μM ([8]; HepG2 lysate, 20 mins, read-out: % intact peptide): 21.7% | remaining at 0.5 h, 20 μM ([8]; HepG2 lysate, 30 mins, read-out: % intact peptide): 6.92%
Molecule: COc1ccc2c(C[C@H](NC(=O)[C@H](C)NC(=O)[C@H](CCCNC(=N)N)NC(=O)[C@H](Cc3ccccc3)NC(=O)[C@H](CC(C)C)NC(=O)[C@H](Cc3c[nH]cn3)NC(=O)[C@@H](N)Cc3cc(=O)oc4cc(OC)ccc34)C(=O)O)cc(=O)oc2c1 [R1A, μHLFRAμ] (H-[Ala(7-MeO-coumarin-4-yl)]HLFRA[Ala(7-MeO-coumarin-4-yl)]-OH)

remaining at 2 h, 20 μM ([8]; HepG2 lysate, 2 hours, read-out: % intact peptide): 86.3% | remaining at 6 h, 20 μM ([8]; HepG2 lysate, 6 hours, read-out: % intact peptide): 75.7% | remaining at 8 h, 20 μM ([8]; HepG2 lysate, 8 hours, read-out: % intact peptide): 80.7% | remaining at 10 h, 20 μM ([8]; HepG2 lysate, 10 hours, read-out: % intact peptide): 79.9% | remaining at 24 h, 20 μM ([8]; HepG2 lysate, 24 hours, read-out: % intact peptide): 61.3%
Molecule: COc1ccc2c(C[C@H](NC(=O)[C@H](C)NC(=S)[C@H](CCCNC(=N)N)NC(=O)[C@H](Cc3ccccc3)NC(=O)[C@H](CC(C)C)NC(=O)[C@H](Cc3c[nH]cn3)NC(=O)[C@@H](N)Cc3cc(=O)oc4cc(OC)ccc34)C(=O)O)cc(=O)oc2c1 [R^S1A, μHLFR^SAμ] (H-[Ala(7-MeO-coumarin-4-yl)]HLF[X1][Ala(7-MeO-coumarin-4-yl)]-OH)
